Results from patent publication US8227408B2, “Leptin as an anti-amyloidogenic biologic and methods for delaying the onset and reducing Alzheimer's disease-like pathology” (Neurotez, Inc., priority 2005, dated 2012).

B1: Ciliary neurotrophic factor: member of the gp130 family of cytokines regulating survival and differentiation of neurons (protein, UniProt P26441 1-200, looked up)
Ciliary neurotrophic factor: MAFTEHSPLTPHRRDLCSRSIWLARKIRSDLTALTESYVKHQGLNKNINLDSADGMPVASTDQWSELTEAERLQENLQAYRTFHVLLARLLEDQQVHFTPTEGDFHQAIHTLLLQVAAFAYQIEELMILLEYKIPRNEADGMPINVGDGGLFEKKLWGLKVLQELSQWTVRSIHDLRFISSHQTGIPARGSHYIANNKKM
B2: RAP: Receptor Associated Protein, antagonist of a number of lipoprotein receptors (protein)
chain: YSREKNQPKPSPKRESGEEFRMEKLNQLWEKAQRLHLPPVRLAELHADLKIQERDELAWKKLKLDGLDEDGEKEARLIRNLNVILAKYGLDGKKDARQVTSNSLSGTQEDGLDDPRLEKLWHKAKTSGKFSGEELDKLWREFLHHKEKVHEYNVLLETLSRTEEIHENVISPSDLSDIKGSVLHSRHTELKEKLRSINQGLDRLRRVSHQGYSTEAEFEEPRVIDLWDLAQSANLTDKELEAFREELKHFEAKIEKHNHYQKQLEIAHEKLRHAESVGDGERVSRSREKHALLEGRTKELGYTVKKHLQDLSGRISRARHNEL

Tests used:
[1] = tested on: Neuro2a cells stably transfected with hyg-sa134 (SEAP-APP); experiment: Aβ production by Neuro2a cells stably transfected with hyg-sa134 (total Aβ in media, sandwich ELISA); format: cell-based, mouse; details: for Aβ production / levels of Aβ in the media (in words): 2 or 5 h treatment; for Neuro2a/SEAP-APP Aβ(% control): total Aβ in conditioned media, concentration (TOFA 200 μM, cerulenin 200 μM, etomoxir 40 μM, peptide YY (3-36) 25 μM, CNTF 25 μM, leptin 400 ng/ml), mean ± SEM, 4 experiments, NS = non-significant; for Neuro2a/SEAP-APP Aβ(% control) / Aβ production (in words): 5 h
Procedure: (§1) Neuro2a (mouse neuroblastoma) stably transfected with hyg-sa134, a pcDNA3.1/Hygro plasmid (Invitrogen, CA) modified to express a fusion protein of secreted alkaline phosphatase (SEAP) and a fragment of APP consisting of the C-terminal 134 amino acids (“CAPP134”) (SEQ ID NO:10) were maintained in culture as described ([…]) in the presence of 400 μg/ml of hygromycin. SEQ ID NO: 11 is the DNA sequence of the entire hygsa134 vector, which was derived from the pcDNA3.1/Hygro vector by genetic manipulation to insert the DNA sequences for SEAP and CAPP134. The SEAP-CAPP cDNA insert from hyg-sa134 was also subcloned into an adenoviral vector using the Adeno Vator system (Qbiogene, Calif.). The DNA sequence for SEAP (corresponding to nucleotides 981-2441 of hyg-sa134) (SEQ ID NO: 9) is located 5′ to the DNA sequence (SEQ ID NO: 12) coding for CAPP134 (SEQ ID NO: 10).
(§2) SY5Y and hyg-sa134-Neuro2a cells were treated at 80% confluency (see below). Primary neural cultures from mouse embryos were allowed to grow for 6-12 days following plating and prior to viral infection and treatments.
About 5 μg/ml or about 10 μg/ml water-soluble cholesterol was added to cultures for 2 or 5 hours. Water soluble cholesterol (Sigma-Aldrich, MO) is a solution made of cholesterol balanced with cyclodextrin CDX (40 mg cholesterol per gr CDX). For comparison, cultures were treated with the equivalent amount of the resin alone, which leads to depletion of cholesterol in the cultures (Simons et al., Proc Natl Acad Sci USA. 95:6460-4 (1998)).
(§3) About 100 ng/ml or about 400 ng/ml leptin (Harbor-UCLA, CA), was added in cell culture medium for 2 or 5 h. Cells were approximately 80% confluent at the time of treatment. Peptide YY (3-36) (Phoenix Pharmaceuticals, Inc., CA), and CNTF (Sigma-Aldrich, Mo.) were added at about 25 μM or 150 μM for the same incubation periods. TOFA, etomoxir (Research Biochemicals International, MA) and cerulenin (Sigma-Aldrich, Mo.) were used as described below.
(§4) For the determination of Aβ peptide several methodologies also were used. SY5Y cells in culture were metabolically labeled with ^35S-[Met] as described (Figueiredo-Pereira et al. J Neurochem. 72:1417-22 (1999)), followed by immunoprecipitation, resolution of the immunoprecipitates on SDS-PAGE, autoradiography, and densitometric analysis of the autoradiogram. Neuro2a cells were stably transfected with hyg-sa134 (K. Sambamurti, S. Carolina Medical Center, SC) and Aβ40 (SEQ ID NO: 4) plus Aβ42 (SEQ ID NO: 5) plus Aβ43 (SEQ ID NO: 6) (Total Aβ) in the medium then was quantified by sandwich ELISAs developed with 4G8 and 6 ε10 monoclonal antibodies (Signet, Mass.) as described (Figueiredo-Pereira et al., J Neurochem. 72:1417-22 (1999)). Commercially available ELISA kits (KMI Diagnostics, MN) were used for the separate determination of Aβ40 (SEQ ID NO:4) and Aβ42/43 (SEQ ID NO:5/SEQ ID NO:6) in formic acid extracts of mice brains. Flotillin was detected using monoclonal anti-flotillin-1 antibodies (BD Biosciences, CA). Actin was detected using monoclonal anti-actin antibodies (Research Diagnostics, Inc, NJ).
Human (SYSY) or mouse neuroblastoma cell-lines (Neuro2a) commonly are used to study amyloid β metabolism in vitro. Neuro2a cells are stably transfected with hyg-sa134 (SEQ ID NO: 11), a plasmid driving the expression of a recombinant fusion protein containing the human C-terminal fragment of APP of about 134 amino acids, CAPP134 (SEQ ID NO: 10). Here, 5Y5Y or Neuro2a cultures were treated for 2 or 5 h with about 100 ng/ml or about 400 ng/ml leptin (FIG. 4a, 4b). Similarly, primary neurons from embryonic rat brain, infected with an adenovirus to direct the expression of CAPP134 (SEQ ID NO:10) also were treated according to the same regimen. […]

[2] = tested on: primary embryonic rat neurons infected with adenovirus; experiment: Aβ production by primary embryonic rat neurons infected with adenovirus (SEAP-APP); format: cell-based; details: total Aβ in conditioned media, 5 h; concentration (TOFA 200 μM, cerulenin 200 μM, etomoxir 40 μM, peptide YY (3-36) 25 μM, CNTF 25 μM, leptin 400 ng/ml); mean ± SEM; NS = non-significant
Source text: (§5) Cell cultures, Treatments, Antibodies and Immunoassays. SY5Y cells (human neuroblastoma) were maintained in culture as described (Johnsingh et al., FEBS Lett. 465:53-8 (2000)). Primary neural cultures were obtained from ε16 rat embryonic cortex, as described (Shimoda et al., 1992. Brain Res. 586:319-31 (1992)). These were either grown as mixed cultures (Johnsingh et al., FEBS Lett. 465:53-8 (2000)) or grown under conditions that favor the isolation and proliferation of astrocytes (Takeshima et al., J Neurosci. 14:4769-79 (1994)).
as §1, §2
(§6) Human (SYSY) or mouse neuroblastoma cell-lines (Neuro2a) commonly are used to study amyloid β metabolism in vitro. Neuro2a cells are stably transfected with hyg-sa134 (SEQ ID NO: 11), a plasmid driving the expression of a recombinant fusion protein containing the human C-terminal fragment of APP of about 134 amino acids, CAPP134 (SEQ ID NO: 10). Here, 5Y5Y or Neuro2a cultures were treated for 2 or 5 h with about 100 ng/ml or about 400 ng/ml leptin (FIG. 4a, 4b). Similarly, primary neurons from embryonic rat brain, infected with an adenovirus to direct the expression of CAPP134 (SEQ ID NO:10) also were treated according to the same regimen.

SY5Y cells [3] = experiment: Aβ production by SY5Y cells; format: cell-based, human; details: total Aβ in conditioned media, 5 h; concentration (TOFA 200 μM, cerulenin 200 μM, etomoxir 40 μM, peptide YY (3-36) 25 μM, CNTF 25 μM, leptin 400 ng/ml); mean ± SEM; NS = non-significant
Source text: as §5, §2, §3, §4, §6

SY5Y cells [4] = experiment: 125I-Aβ uptake by SY5Y cells (apoE-dependent); format: cell-based, human; details: RAP 1 μM added together with Aβ or the Aβ/apoE complex
Procedure: Preparation of ApoE and binding with ^125I-Aβ. ApoE was isolated from the conditioned media of human embryonic kidney (HEK-293) cells stably-transfected with human apoE (having the ε3 allele or the ε4 allele) cDNA (Tezapsidis et al., FASEB J. 17:1322-1324 (2003)). These preparations, while usually poor in lipid, are fully functional for uptake experiments. ApoE then was pre-incubated with ^125I-Aβ overnight at 37° C. (Aβ/ApoE: 1/50 w/w) as described (Tezapsidis et al., FASEB J. 17:1322-1324 (2003)).
Aβ-uptake by SY5Y cells. Human ^125I-Aβ (iodinated at Tyr-10, Amersham Biosciences, IM 294) uptake was measured following addition of 0.1 nM ^125I-Aβ40 (SEQ ID NO: 4) to confluent SY5Y cells (60,000 cpm/ml) in the presence or absence of 100 ng/ml or 400 ng/ml leptin also included in a 24 h pre-incubation period. ^125I-Aβ was either added alone or was previously incubated with apoε3. In controls, Receptor Associated Protein (“RAP”, 1 μM) was added together with Aβ or the Aβ/apoE complex. RAP is an antagonist of a number of lipoprotein receptors (LaDu et al., Neurochem Int. 39:427-34 (2001)). After 24 h, the media were collected and subjected to scintillation counting for γ-Iradiation (Kang et al., 2000. J Clin Invest. 106:1159-66 (2000)). The amount of radioactivity was measured in both the trichloroacetic acid (10%) TCA pellets (representing intact Aβ) and the corresponding supernatants (representing degraded Aβ). 96.5±8.2% (mean±s.e.m., n=4 experiments, triplicate determinations) of the radioactivity found in the medium could be recovered in the TCA pellet and represented intact or oligomeric Aβ (not shown), when Aβ was pre-incubated with apoE.
The amount of TCA-precipitable radioactivity in the soluble fraction of cell lysates was compared to that in the total lysates, the ratio of which was typically about 0.8 to about 0.9 (not shown), to further verify that radioactivity was reduced in the media as a reflection of Aβ uptake by the cells, rather than due to non-specific binding to the extracellular surface of membranes or oligomerization/aggregation of Aβ.
In panel (a), Aβ uptake was measured in SY5Y cells following their treatment at 0 ng/ml, 100 ng/ml or 400 ng/ml leptin. Uptake also was measured in cells previously transfected with antisense DNA for PS1 as described (Tezapsidis et al., FASEB J. 17:1322-1324(2003)) (black). Uptake is expressed as the percentage of that observed with Aβ pre-incubated with apoε3 (medium gray) in the absence of leptin (first set of columns). […] Leptin induced a dose-dependent increase in Aβ uptake with a preference for apoε3 (medium gray) over apoε4 (light gray). In panel (b), SY5Y cells were pre-treated with […] cholesterol (+Chol) or normal medium (−Chol). Then Aβ uptake was measured following its preincubation with apoε3 (ε3) or apoε4 (ε4) in the absence (black) or the presence (gray) of about 400 ng/ml leptin. Cells were more resistant to taking-up Aβ when loaded with cholesterol. […] In panel (c), SY5Y cells were transiently transfected with SREBP-1 or SREBP-2 cDNA or an empty vector (Control). Then Aβ was measured in the medium by ELISAs (Figueiredo-Pereira et al., J Neurochem. 72:1417-22 (1999)) following treatment with (+) or without (−) leptin. […] In panel (d), Aβ uptake was measured in SY5Y cells prepared as in panel (c). Uptake was performed using Aβ/apoε3 complexes.

[5] = 25 μM (equimolar concentrations), Table 1 cells
[6] = higher (150 μM) concentrations, not shown

Molecule | Aβ production / levels of Aβ in the media (in words) [1] | Neuro2a/SEAP-APP Aβ(% control) [1] | Neurons/SEAPP-APP Aβ (% control) [2] | SY5Y Aβ (% control) (SY5Y cells [3]) | Aβ production (in words) [1, 5] | Aβ production (in words) [1, 6] | Aβ uptake (SY5Y cells [4])
C/C=C/C/C=C/CCC(=O)[C@H]1O[C@H]1C(N)=O [Cerulenin, cerulenin] | mimicked | 52 ± 12 % control | 66 ± 5 % control | 65 ± 9, NS % control |  |  | 
CCOC(=O)[C@@]1(CCCCCCOc2ccc(Cl)cc2)CO1 [Etomoxir] | increased Aβ production | 154 ± 14 % control | 158 ± 14 % control | 142 ± 14 % control |  |  | 
CCCCCCCCCCCCCCOc1ccc(C(=O)O)o1 [TOFA, 5-(tetradecyloxy)-2-furancarboxylic acid] | mimicked | 40 ± 15 % control | 35 ± 4 % control | 58 ± 12 % control |  |  | 
Peptide YY (3-36): gut-derived hormone affecting daily food intake |  | 92 ± 9, NS % control | 98 ± 5, NS % control | 96 ± 7, NS % control | neither peptide changed Aβ production in a statistically significant way | neither peptide changed Aβ production in a statistically significant way | 
methyl-β-cyclodextrin | lowering Aβ |  |  |  |  |  | 
B1 |  | 95 ± 4, NS % control | 89 ± 12, NS % control | 96 ± 8, NS % control | neither peptide changed Aβ production in a statistically significant way | neither peptide changed Aβ production in a statistically significant way | 
B2 |  |  |  |  |  |  | abolished uptake
